Measurements taken from patent US20250325469A1, “Inhibitors of atp synthase - cosmetic and therapeutic uses” (priority 2021, published 2025).
Read-outs that look alike come from different tables or passages of the source.

Tests used:
[1] = cited from earlier work
[2] = cited from earlier work; remark: listed apart in the source
[3] = rats, radioactively labelled [151]; cited from earlier work
F1F0 ATP hydrolysis [4] = target: T1, F1F0 ATP hydrolysis (Mus musculus, UniProt P56480+Q03265); details: cited from earlier work
T1 construct: F1F0 ATP hydrolysis is 35% less in brain mitochondria isolated from H+/T+ than wild-type mice; from tissue; host or cells: mitochondria isolated from brain of wild-type and H+/T+ double transgenic mice

[5] = tested on: oxidative phosphorylation; details: State 3 respiration, H+/T+ vs wild-type [130]; cited from earlier work
[6] = tested on: oxidative phosphorylation; details: cited from earlier work
[7] = mouse, in vivo; cited from earlier work
F1F0 ATP hydrolysis [8] = target: T1, F1F0 ATP hydrolysis; details: brain mitochondria of H+/T+ vs wild-type mice [130]; cited from earlier work
ROS (superoxide) = experiment: MitoSOX ROS (superoxide) signal in cultured cortical neurons of H+/T+ mice; assay type: cell-based, mouse; details: H+/T+ vs wild-type mitochondria, corrected for MitoSOX accumulation
From the text: (FIG. 6B) Experiments with cortical neurons in culture, after being cultured for 9-10 days, after being extracted from mouse embryos. […] As in FIG. 6A. But this time in cultured cortical neurons from the mice (embryos), wherein the mitochondria of H+/T+ mice have a more hyperpolarized ΨIM (accumulate more TMRM^+) than wild-type. But, as in FIG. 6A, have a more depolarized ΨIM upon FCCP/respiratory chain inhibitor (antimycin A/rotenone) administration. A typical value for ΨIM in normal mitochondria is −140 mV and if we equate the 5 a.u. value for wild-type in the 2nd panel with −140 mV, then the 6 a.u. value of H+/T+here in the 2nd panel is −168 mV. This ΨIM disparity means that H+/T+ mitochondria accumulates more MitoSOX ROS (superoxide) reporting compound in their mitochondrial matrix, wherein this disparity can be calculated using the equation presented earlier, and this disparity is shown here, in the 3rd panel. With this MitoSOX accumulation disparity, one would expect a greater MitoSOX signal from H+/T+ mitochondria, to wild-type mitochondria, in the proportion shown in the 3rd panel. But what is actually experimentally observed is in the 4th panel. Thence H+/T+ mitochondria must produce 66% less ROS (superoxide) than wild-type, which fits with their lower oxidative respiration rate observed in (FIG. 6A). […]

F1F0 ATP hydrolysis [9] = target: T1, F1F0 ATP hydrolysis; details: colon mitochondria, I/T Tet-on mice [136]; cited from earlier work
[10] = tested on: oxidative phosphorylation; details: colon mitochondria, I/T Tet-on mice [136]; cited from earlier work

In the case of `C=CCNc1nc(NCC=C)nc(N2CCN(C(c3ccc(F)cc3)c3ccc(F)cc3)CC2)n1` [almitrine], the “mean plasma concentration of almitrine” value ([1]; 8 μg/kg/min for 20 minutes, during infusion) is listed as 325 ng/mL, the “highest observed plasma almitrine concentration” value ([1]; 16 μg/kg/min for 1 hour [177]) is listed as ~1,600 ng/ml and the “plasma almitrine concentration, all subjects but one” value ([1]; 16 μg/kg/min for 1 hour, 2 hours after the infusion stopped [177]) is listed as “below 400 ng/ml”. The “plasma almitrine concentration, all subjects” value ([1]; 16 μg/kg/min for 1 hour, by 12 hours [177]) was “below 200 ng/ml”, the “plasma almitrine concentration, all subjects” value ([1]; 16 μg/kg/min for 1 hour, during infusion [177]) was “greater than 600 ng/ml” and the “mean plasma concentration of almitrine” value ([1]; 16 μg/kg/min, 20 minutes into the infusion) was 659 ng/mL. For the same molecule, the adverse side-effect ([2]; 8.3 μg/kg/min for 30 minutes [176]) was “no adverse side-effect was observed”, the plasma lactate concentrations ([2]; 16 μg/kg/min infusion) was “remained within the normal range in all patients” and the deleterious effects ([2]; 16.7 ug/kg/min for 1 hour) was “without deleterious effects”. The tissue accumulation [3] was “especially accumulated in the lungs”.

B1: human H49K IF1 protein: mutant human IF1 protein with a H49K substitution, expressed as transgene in mice (protein, UniProt Q9UII2 26-106, looked up, variant H49K)
ATPase inhibitor, …: GSDQSENVDRGAGSIREAGGAFGKREQAEEERYFRAQSREQLAALKKHKEEEIVHHKKEIERLQKEIERHKQKIKMLKHDD
modifications: expressed as transgene in mice
For B1, the “inhibition of F1F0 ATP hydrolysis capability” value (“inhibition” below) (F1F0 ATP hydrolysis [4]; Tet-off mice [135]) is listed as 25%, the “inhibition” value (F1F0 ATP hydrolysis [4]; Tet-on mice [135]) is listed as 40% and the “less O2 consumption” value [5] is listed as ~60%. The “decrease of State 3 respiration rate” value ([6]; Tet-off mice [135]) was 37%, the “decrease of State 3 respiration rate” value ([6]; Tet-on mice [135]) was 44% and the “weight, life span and cage behavior” value [7] was “no differences in weight, life span and cage behavior when compared to controls after one year of follow up”. For the same molecule, the “reduction of F1F0 ATP hydrolysis capability” value (F1F0 ATP hydrolysis [8]) was 35% and the “less ROS (superoxide) produced” value (ROS (superoxide)) was 66%.

B2: human IF1 protein: Non-mutant human IF1 protein expressed as transgene in mouse intestine cells (protein, UniProt Q9UII2 26-106, looked up)
ATPase inhibitor, …: GSDQSENVDRGAGSIREAGGAFGKREQAEEERYFRAQSREQLAALKKHHEEEIVHHKKEIERLQKEIERHKQKIKMLKHDD
For B2, the “inhibition” value (F1F0 ATP hydrolysis [9]) is listed as 35% and the “decrease of oligomycin sensitive respiration rate” value [10] is listed as 60%.
